The numbers were not newly measured in patent US20020112260A1, “Plants having resistance to multiple herbicides and its use” (Asgrow Seed Company LLC, priority 1997, published 2002), which cites them from elsewhere.

SMILES strings stand for the structures.

The series concerns soybeans. The conditions noted are these: non-STS soybeans.

As to `COc1nc(C)nc(NC(=O)NS(=O)(=O)c2ccsc2C(=O)O)n1` [thifensulfuron], the crop injury result is listed as “can cause significant crop injury”.

For `COc1cc(Cl)nc(NC(=O)NS(=O)(=O)c2ccccc2C(=O)O)n1` [chlorimuron], the crop injury entry is “can cause significant crop injury”.
